Legend:
[1] = Acute oral toxicity test using the rat; details: in vivo
Description: In these studies, it has been determined that the 1,2-diphenylaziridines of this invention have low mammalian toxicity.
Immediate effects, resulting from insecticide toxicity, are usually related to the principal toxic action of the compound.

[2] = test system: tobacco hornworm (Manduca sexta) larvae; assay: Tobacco hornworm growth and developmental responses to feeding on diets containing the compounds; type: in vivo
[3] = test system: tobacco hornworm larvae (newly ecdysed fifth-instar); assay: Topical application to tobacco hornworm larvae; type: in vivo, Manduca sexta; details: 2000 μg/larvae (1600 ppm)
Method: The test compounds were dissolved either in acetone or hexane and applied to the integument of the test insect with a micro applicator. Newly ecdysed fifth-instar tobacco hornworm larvae weighing between 1-1.5 g were used and toxicity data were obtained in the same way as previously described.

H. virescens = assay: Incorporation into H. virescens diet; type: in vivo, Heliothis virescens; details: as much as 20 mM in diet
Method: Compounds 1, 10, 11, 13 and 14 were incorporated into H. virescens diet in the same manner as M. Sexta. Diets containing as much as 20 mM of each compound had little effect on larval development time, pupal weight or time to adult emergence.

[4] = test system: Salmonella typhimurium strains TA 98, TA 100, TA 1535, TA 1537, TA 1538, TA 1978; assay: Ames assay (spot test), revertant colonies; type: cell-based
Method: This means that aziridine compounds, 1, 10, or 11, will not cause mutations in DNA arising from potential changes in frame shift and/or base pairing. Compounds 1, 10 and 11 were tested for mutagenic properties using the following experimental procedure.
Potential mutagenic and carcinogenic properties of the compounds were evaluated with standard Ames assay procedures (Ames et al, "Mutation Res.", 31, p. 347, 1975). This assay used strains of Salmonella typhimurium selected for sensitivity and specificity in being reverted from a histidine requirement back to prototrophy by a wide variety of mutagens. Potential changes in frameshift were evaluated using strains TA 98, TA 1537 and TA 1538, while changes in base pairing were detected using strains TA 100 and TA 1535. In addition, strain TA 1978 was used, in combination with TA 1538, to evaluate whether the agent killed bacteria by damage to DNA that could be repaired by this strain. Initially, the compounds were screened using the spot test, in which 1000 μgm of material dissolved in 10 μl of DNSO was applied to the middle of the plate.
Dose-response tests were not performed because the results were negative. All the tests were carried out in the presence and absence of an S9 rat liver preparation and contained a positive control (2-acetylaminofluorene,AAF) and a negative control (DMSO).

Structure (SMILES): Clc1ccc(N2CC2c2ccccc2Cl)cc1Cl (stereo not drawn) [Compound 10, 1-(3-4-dichlorophenyl)-2-(2-chlorophenyl)aziridine]
- LD50 [1]: > 2000 mg/kg
- % Adult Emergence ([2]; 5 mM in diet): 7%
- % Malformed Adults ([2]; 5 mM in diet): 100%
- % Pupation ([2]; 5 mM in diet): 80%
- Days to Max Wt ([2]; 5 mM in diet): 7.5 ± .3 days
- Max Larval Wt ([2]; 5 mM in diet): 5.69 ± .27 g
- Mean No. of Eggs ([2]; 5 mM in diet): 55 ± 0
- No. of female Adults ([2]; 5 mM in diet): 1
- feeding time required to attain reduced maximum weight ([2]; 5 mM in diet): extended the feeding time
- pupal mortality ([2]; 5 mM in diet): significant pupal mortality
- reduction in the maximum weight of hornworm larvae ([2]; 5 mM in diet): 30-50%
- wrinkled or crumpled wings of moths ([2]; 5 mM in diet): observed in significant numbers of moths
- Total No. of Adults ([2]; 5 mM in diet, all tests began with 15 larvae): 1
- oral activity ([2]; diet, Example 2): good oral activity
- pupal mortality ([2]; summary of Tables I and II): caused pupal mortality
- topical effect [3]: ineffective
- effect on larval development time, pupal weight or time to adult emergence (H. virescens): little effect
- Mean number of revertant colonies per plate, TA 98 +S9 ([4]; strain TA 98, +S9): 45.3 colonies per plate
- Mean number of revertant colonies per plate, TA 98 -S9 ([4]; strain TA 98, -S9): 26.7 colonies per plate
- Mean number of revertant colonies per plate, TA 100 +S9 ([4]; strain TA 100, +S9): 56.0 colonies per plate
- Mean number of revertant colonies per plate, TA 100 -S9 ([4]; strain TA 100, -S9): 26.3 colonies per plate
- Mean number of revertant colonies per plate, TA 1535 +S9 ([4]; strain TA 1535, +S9): 20.3 colonies per plate
- Mean number of revertant colonies per plate, TA 1535 -S9 ([4]; strain TA 1535, -S9): 25.0 colonies per plate
- Mean number of revertant colonies per plate, TA 1537 +S9 ([4]; strain TA 1537, +S9): 13.7 colonies per plate
- Mean number of revertant colonies per plate, TA 1537 -S9 ([4]; strain TA 1537, -S9): 9.0 colonies per plate
- Mean number of revertant colonies per plate, TA 1538 +S9 ([4]; strain TA 1538, +S9): 35.7 colonies per plate
- Mean number of revertant colonies per plate, TA 1538 -S9 ([4]; strain TA 1538, -S9): 12.0 colonies per plate
- Mean number of revertant colonies per plate, TA 1978 +S9 ([4]; strain TA 1978, +S9): 202.0 colonies per plate
- Mean number of revertant colonies per plate, TA 1978 -S9 ([4]; strain TA 1978, -S9): 196.0 colonies per plate
- mutagenicity ([4]; with and without S9 / mammalian liver enzymes): not mutagenic

— patent publication US4582827A, “Pesticidal diphenylaziridines” (priority 1983, dated 1986)
